According to patent US4098823A, “Monospiroalkyl derivatives of prostaglandins” (Miles Laboratories, Inc., priority 1977, dated 1978):

Columns and labels:
Rat Uterus = test: Effects on the Rat Uterus in Vitro; type: cell-based; conditions: Rattus norvegicus; in vitro, 29° C; response 50% that of carbachol; read-out: Test F Rat Uterus, Activity Value (ED50)
Procedure, shortened: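 Uterine segments came from rats (140–160 g) given 1 mg/kg diethylstilbestrol s.c. 18 h earlier. Tissue was held isometrically at 1 g tension in de Jalon solution at 29 °C, gassed with 95% O2/5% CO2. Compound was tested at 0.001–10 mcg/ml in log steps, every 10 min with washes, and ED50 was derived graphically as 50% of the second carbachol (1 mcg/ml) response.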

[1] = tested on: Blood Pressure and Heart Rate; test: Effects on Blood Pressure and Heart Rate in the Anesthetized Cat; type: in vivo; conditions: Felis catus, intravenous, 0.01 to 10.0 mcg/kg, scored only on hypotension, read-out: Test D Activity Value (ED50 mmHg, decrease in blood pressure)
Procedure, shortened: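 Cats of either sex anesthetized with pentobarbital sodium (35 mg/kg i.v.) plus barbital sodium (100 mg/kg i.v.), femoral arterial pressure and ECG-driven heart rate recorded. Compound given i.v. at one-log increasing doses, 0.01–10.0 mcg/kg, every 10 min. ED50 mmHg (dose lowering blood pressure by 50 mmHg) derived graphically from hypotension.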

chick rectum = test: Cascade Assay, rectum (smooth muscle stimulant effect); type: cell-based; conditions: superfused, 50% of maximum (PGE1)
Procedure, shortened: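 Rabbit aortic strip (4 g tension), rat stomach fundus, rat colon and chick rectum (1 g) in cascade, superfused at 10 ml/min with 37° C Krebs containing cholinergic, adrenergic, serotonin and histamine blockers. Doses of 0.001–100,000 ng dripped on at 10–20 min intervals; maximal tension rise gave graphical ED50 per tissue.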

For `COC(=O)CCCCCC[C@H]1C(=O)C[C@@H](O)[C@@H]1/C=C/[C@H](O)C1CC2(CCC2)C1` [TR-4120, Methyl 7-{3R-hydroxy-5-oxo-2R-[3R-hydroxy-3-(spiro[3.3]hept-2-yl)-1E-propenyl]cyclopent-1R-yl}heptanoate], the EC50 (Rat Uterus) was over 10 µg/mL, the ED (50 mmHg) [1] was over 0.01 mg/kg and the “Test E Cascade Assay, Rectum, Activity Value (ED50)” value (chick rectum) was 1 (1001 - 10000).
